Tests used:
Experiment in all cases: relative viability (nuclei count vs DMSO), 5 days (fraction); higher = more cells survive
[1] = compound: CN(C)CC1=CC(=CC=C1)N=C(C2=CC=CC=C2)C3=C(NC4=C3C=CC(=C4)C(=O)N(C)C)O + CS(=O)(=O)N1CCN(Cc2cc3nc(-c4cccc5[nH]ncc45)nc(N4CCOCC4)c3s2)CC1 [Pictilisib] (partner 1 µM)
Method in brief: (§1)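 Relative viability divides the nuclei count in treated wells by that in vehicle wells. Lung cancer cell lines were seeded in 1536-well plates, dosed by pin tool the next day, and fixed and stained after 5 days in one step with final 0.05% Triton X-100, 1% formaldehyde and 1 ug/ml Hoechst. Dosing was a single drug or a fixed anchor-drug dose plus five library-drug doses (not always all listed) in √10 steps, and values are medians of duplicate plates imaged at 4×.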

[2] = compound: CN(C)CC1=CC(=CC=C1)N=C(C2=CC=CC=C2)C3=C(NC4=C3C=CC(=C4)C(=O)N(C)C)O + COc1cc2c(Oc3ccc(NC(=O)C4(C(=O)Nc5ccc(F)cc5)CC4)cc3F)ccnc2cc1OCCCN1CCOCC1 [Foretinib] (partner 0.25 µM)
Method in brief: as §1

[3] = compound: CN(C)CC1=CC(=CC=C1)N=C(C2=CC=CC=C2)C3=C(NC4=C3C=CC(=C4)C(=O)N(C)C)O + CC(=O)c1c(C)c2cnc(Nc3ccc(N4CCNCC4)cn3)nc2n(C2CCCC2)c1=O [Palbociclib] (partner 0.5 µM)
Method in brief: as §1

[4] = compound: CN(C)CC1=CC(=CC=C1)N=C(C2=CC=CC=C2)C3=C(NC4=C3C=CC(=C4)C(=O)N(C)C)O + CC(C)C[C@H](NC(=O)[C@H](Cc1ccccc1)NC(=O)c1cnccn1)B(O)O [Bortezomib] (partner 0.002 µM)
Method in brief: as §1

| Cell Line | relative viability ([1]; first compound 0.08 µM) | relative viability ([1]; first compound 0.253 µM) | relative viability ([1]; first compound 0.8 µM) | relative viability ([1]; first compound 2.53 µM) | relative viability ([1]; first compound 8 µM) | relative viability ([2]; first compound 0.08 µM) | relative viability ([2]; first compound 0.253 µM) | relative viability ([2]; first compound 0.8 µM) | relative viability ([2]; first compound 2.53 µM) | relative viability ([2]; first compound 8 µM) | relative viability ([3]; first compound 0.08 µM) | relative viability ([3]; first compound 0.253 µM) | relative viability ([3]; first compound 0.8 µM) | relative viability ([3]; first compound 2.53 µM) | relative viability ([3]; first compound 8 µM) | relative viability ([4]; first compound 0.08 µM) | relative viability ([4]; first compound 0.253 µM) | relative viability ([4]; first compound 0.8 µM) | relative viability ([4]; first compound 2.53 µM) | relative viability ([4]; first compound 8 µM) |
| --- | --- | --- | --- | --- | --- | --- | --- | --- | --- | --- | --- | --- | --- | --- | --- | --- | --- | --- | --- | --- |
| NCI-H2405 | 0.457 | 0.357 | 0.441 | 0.385 | 0.382 | 1.04 | 1.08 | 1.01 | 0.992 | 1.04 | 0.545 | 0.562 | 0.513 | 0.467 | 0.478 | 0.976 | 1.02 | 0.976 | 0.954 | 0.951 |
| NCI-H3122 | 0.664 | 0.55 | 0.643 | 0.698 | 0.746 | 0.995 | 0.983 | 1.01 | 1.02 | 0.966 | 0.17 | 0.15 | 0.204 | 0.17 | 0.226 | 0.984 | 0.99 | 1.06 | 0.959 | 0.98 |
| PC-3 [JPC-3] | 0.613 | 0.88 | 0.655 | 0.76 | 0.829 | 1.06 | 1.09 | 0.916 | 1.03 | 1.06 | 0.543 | 0.573 | 0.534 | 0.557 | 0.602 | 0.856 | 0.826 | 0.759 | 0.886 | 0.866 |
| PC-14 | 0.698 | 0.608 | 0.63 | 0.591 | 0.662 | 0.9 | 0.903 | 1.02 | 0.934 | 0.951 | 0.474 | 0.412 | 0.635 | 0.614 | 0.537 | 0.989 | 0.839 | 0.89 | 0.767 | 1.06 |
| RERF-LC-KJ | 0.518 | 0.595 | 0.57 | 0.625 | 0.515 | 0.865 | 0.894 | 0.873 | 0.833 | 0.907 | 1.08 | 1.05 | 1.01 | 0.992 | 0.982 | 1.36 | 1.12 | 1.07 | 1.01 | 1.02 |
| SK-LU-1 | 0.575 | 0.548 | 0.566 | 0.538 | 0.477 | 0.891 | 0.881 | 0.857 | 0.651 | 0.581 | 0.335 | 0.363 | 0.34 | 0.362 | 0.369 | 0.94 | 1.17 | 1.16 | 1.13 | 1.01 |
| SW 1573 | 0.474 | 0.512 | 0.523 | 0.385 | 0.456 | 0.919 | 0.808 | 0.759 | 0.867 | 0.973 | 0.323 | 0.42 | 0.367 | 0.34 | 0.317 | 1.04 | 1.16 | 1.06 | 0.946 | 0.94 |
| UMC-11 | 0.971 | 0.82 | 0.771 | 0.776 | 0.638 | 1.01 | 1.07 | 1.06 | 1.05 | 0.997 | 0.351 | 0.311 | 0.326 | 0.306 | 0.291 | 0.744 | 0.645 | 0.725 | 0.577 | 0.698 |
